What was measured:
EB2 = experiment: cells; assay type: functional, cell-based, Homo sapiens; conditions: Homo sapiens, EB2;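 further: growth inhibition of EB2 cells, read out with a cell viability assay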
Description: SANGER: Inhibition of human EB2 cell growth in a cell viability assay.

GDM-1 = experiment: cells; assay type: functional, cell-based, Homo sapiens; conditions: Homo sapiens, GDM-1; read-out: IC50;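 further: cell viability readout used to measure growth inhibition of human GDM-1 cells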
Description: SANGER: Inhibition of human GDM-1 cell growth in a cell viability assay.

HC-1 = experiment: cells; assay type: functional, cell-based, Homo sapiens; conditions: Homo sapiens, HC-1;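 further: growth inhibition of HC-1 cells measured by a cell viability assay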
Description: SANGER: Inhibition of human HC-1 cell growth in a cell viability assay.

HCC1599 = experiment: cells; assay type: functional, cell-based, Homo sapiens; conditions: Homo sapiens, HCC1599;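 further: growth inhibition of HCC1599 cells, read out in a cell viability assay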
Description: SANGER: Inhibition of human HCC1599 cell growth in a cell viability assay.

Kasumi 1 = experiment: cells; assay type: functional, cell-based, Homo sapiens; conditions: Homo sapiens, Kasumi 1;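 further: growth inhibition of human Kasumi-1 cells, read out by a cell viability assay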
Description: SANGER: Inhibition of human KASUMI-1 cell growth in a cell viability assay.

NALM-6 = experiment: cells; assay type: functional, cell-based, Homo sapiens; conditions: Homo sapiens, NALM-6;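 further: growth inhibition of NALM-6 cells, read out with a cell viability assay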
Description: SANGER: Inhibition of human NALM-6 cell growth in a cell viability assay.

NCI-H1882 = experiment: cells; assay type: functional, cell-based, Homo sapiens; conditions: Homo sapiens, NCI-H1882;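 further: growth inhibition of the cell line, determined with a viability assay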
Description: SANGER: Inhibition of human NCI-H1882 cell growth in a cell viability assay.

NCI-H2196 = experiment: cells; assay type: functional, cell-based, Homo sapiens; conditions: Homo sapiens, NCI-H2196; read-out: IC50;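 further: cell viability assay used as the readout of growth inhibition in NCI-H2196 cells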
Description: SANGER: Inhibition of human NCI-H2196 cell growth in a cell viability assay.

NCI-H524 = experiment: cells; assay type: functional, cell-based, Homo sapiens; conditions: Homo sapiens, NCI-H524;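 further: growth inhibition of human NCI-H524 cells, read out through a cell viability assay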
Description: SANGER: Inhibition of human NCI-H524 cell growth in a cell viability assay.

PF-382 = experiment: cells; assay type: functional, cell-based, Homo sapiens; conditions: Homo sapiens, PF-382
Description: SANGER: Inhibition of human PF-382 cell growth in a cell viability assay.

RL95-2 = experiment: cells; assay type: functional, cell-based, Homo sapiens; conditions: Homo sapiens, RL95-2;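 further: RL95-2 growth inhibition determined through a cell viability readout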
Description: SANGER: Inhibition of human RL95-2 cell growth in a cell viability assay.

SCLC-21H = experiment: cells; assay type: functional, cell-based, Homo sapiens; conditions: Homo sapiens, SCLC-21H;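 further: growth inhibition of cultured human SCLC-21H cells, read out with a cell viability assay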
Description: SANGER: Inhibition of human SCLC-21H cell growth in a cell viability assay.

SU-DHL-1 = experiment: SANGER: Inhibition of human SU-DHL-1 cell growth in a cell viability assay.; assay type: functional, cell-based; conditions: Homo sapiens, SU-DHL-1
Calu-3 = experiment: cells; assay type: functional, cell-based; conditions: Homo sapiens;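 further: growth inhibition of human Calu-3 cells, determined with a cell viability assay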
Description: SANGER: Inhibition of human Calu-3 cell growth in a cell viability assay.

Capan-2 = experiment: cells; assay type: functional, cell-based; conditions: Homo sapiens;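 further: Capan-2 cell growth inhibition, read out with a viability assay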
Description: SANGER: Inhibition of human Capan-2 cell growth in a cell viability assay.

HCC1419 = experiment: cells; assay type: functional, cell-based; conditions: Homo sapiens;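 further: growth inhibition of human HCC1419 cells, read out as cell viability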
Description: SANGER: Inhibition of human HCC1419 cell growth in a cell viability assay.

HCC1954 = experiment: cells; assay type: functional, cell-based; conditions: Homo sapiens;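 further: growth inhibition of human HCC1954 cells, read out with a cell viability assay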
Description: SANGER: Inhibition of human HCC1954 cell growth in a cell viability assay.

HCT-116 = experiment: cells; assay type: functional, cell-based; conditions: Homo sapiens
Description: SANGER: Inhibition of human HCT-116 cell growth in a cell viability assay.

HMV-2 cell line = experiment: cells; assay type: functional, cell-based; conditions: Homo sapiens;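 further: growth inhibition of HMV-II cells, read out with a cell viability assay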
Description: SANGER: Inhibition of human HMV-II cell growth in a cell viability assay.

HO-1-N-1 = experiment: cells; assay type: functional, cell-based; conditions: Homo sapiens;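 further: growth inhibition of human HO-1-N-1 cells, read out with a cell viability assay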
Description: SANGER: Inhibition of human HO-1-N-1 cell growth in a cell viability assay.

HOS = experiment: cells; assay type: functional, cell-based; conditions: Homo sapiens;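 further: growth inhibition of human HOS cells, read out with a cell viability assay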
Description: SANGER: Inhibition of human HOS cell growth in a cell viability assay.

J82 = experiment: cells; assay type: functional, cell-based; conditions: Homo sapiens;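 further: growth inhibition of J82 cells, read out with a cell viability assay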
Description: SANGER: Inhibition of human J82 cell growth in a cell viability assay.

KOSC-2 = experiment: cells; assay type: functional, cell-based; conditions: Homo sapiens;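 further: growth inhibition of KOSC-2 cells, read out by a cell viability assay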
Description: SANGER: Inhibition of human KOSC-2 cell growth in a cell viability assay.

KYSE-150 cell line = experiment: cells; assay type: functional, cell-based; conditions: Homo sapiens;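 further: growth inhibition of human KYSE-150 cells, read out with a cell viability assay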
Description: SANGER: Inhibition of human KYSE-150 cell growth in a cell viability assay.

KYSE-520 cell line = experiment: cells; assay type: functional, cell-based; conditions: Homo sapiens;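 further: growth inhibition of human KYSE-520 cells, read out with a viability assay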
Description: SANGER: Inhibition of human KYSE-520 cell growth in a cell viability assay.

LK-2 = experiment: cells; assay type: functional, cell-based; conditions: Homo sapiens;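 further: growth inhibition of LK-2 cells, read out with a viability assay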
Description: SANGER: Inhibition of human LK-2 cell growth in a cell viability assay.

MHH-ES-1 = experiment: cells; assay type: functional, cell-based; conditions: Homo sapiens
Description: SANGER: Inhibition of human MHH-ES-1 cell growth in a cell viability assay.

NCI-H1651 = experiment: cells; assay type: functional, cell-based; conditions: Homo sapiens;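 further: Read-out is a cell viability assay, with IC50 expressing inhibition of NCI-H1651 cell growth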
Description: SANGER: Inhibition of human NCI-H1651 cell growth in a cell viability assay.

NCI-H1792 = experiment: cells; assay type: functional, cell-based; conditions: Homo sapiens;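 further: growth inhibition of human NCI-H1792 cells, read out as cell viability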
Description: SANGER: Inhibition of human NCI-H1792 cell growth in a cell viability assay.

NCI-H1793 = experiment: cells; assay type: functional, cell-based; conditions: Homo sapiens;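 further: cell growth inhibition, read out by a cell viability assay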
Description: SANGER: Inhibition of human NCI-H1793 cell growth in a cell viability assay.

NCI-H2087 = experiment: cells; assay type: functional, cell-based; conditions: Homo sapiens;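 further: growth inhibition determined with a cell viability readout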
Description: SANGER: Inhibition of human NCI-H2087 cell growth in a cell viability assay.

NCI-H28 = experiment: cells; assay type: functional, cell-based; conditions: Homo sapiens;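 further: growth inhibition of human NCI-H28 cells, read out as cell viability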
Description: SANGER: Inhibition of human NCI-H28 cell growth in a cell viability assay.

NCI-H292 = experiment: cells; assay type: functional, cell-based; conditions: Homo sapiens;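 further: growth inhibition of NCI-H292 cells, read out with a cell viability assay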
Description: SANGER: Inhibition of human NCI-H292 cell growth in a cell viability assay.

NCI-H358 = experiment: cells; assay type: functional, cell-based; conditions: Homo sapiens;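 further: growth inhibition of NCI-H358 human cells, read out with a cell viability assay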
Description: SANGER: Inhibition of human NCI-H358 cell growth in a cell viability assay.

NCI-H460 = experiment: cells; assay type: functional, cell-based; conditions: Homo sapiens;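 further: cell viability assay scoring growth inhibition of human NCI-H460 cells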
Description: SANGER: Inhibition of human NCI-H460 cell growth in a cell viability assay.

NCI-H522 = experiment: cells; assay type: functional, cell-based; conditions: Homo sapiens;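 further: cell viability assay measuring growth inhibition of human NCI-H522 cells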
Description: SANGER: Inhibition of human NCI-H522 cell growth in a cell viability assay.

NCI-H661 = experiment: cells; assay type: functional, cell-based; conditions: Homo sapiens;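 further: cell viability assay read-out, IC50 being the concentration that inhibits growth of the cells by half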
Description: SANGER: Inhibition of human NCI-H661 cell growth in a cell viability assay.

OE33 = experiment: cells; assay type: functional, cell-based; conditions: Homo sapiens;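 further: growth inhibition of human OE33 cells, measured by a cell viability assay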
Description: SANGER: Inhibition of human OE33 cell growth in a cell viability assay.

OVCAR-8 = experiment: cells; assay type: functional, cell-based; conditions: Homo sapiens;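 further: growth inhibition of human OVCAR-8 cells, read out by a cell viability assay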
Description: SANGER: Inhibition of human OVCAR-8 cell growth in a cell viability assay.

RVH-421 = experiment: cells; assay type: functional, cell-based; conditions: Homo sapiens
Description: SANGER: Inhibition of human RVH-421 cell growth in a cell viability assay.

SAS = experiment: cells; assay type: functional, cell-based; conditions: Homo sapiens;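 further: growth inhibition of SAS cells, read out with a cell viability assay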
Description: SANGER: Inhibition of human SAS cell growth in a cell viability assay.

SCC-9 = experiment: cells; assay type: functional, cell-based; conditions: Homo sapiens;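 further: Read-out is a cell viability assay, with values giving inhibition of cell growth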
Description: SANGER: Inhibition of human SCC-9 cell growth in a cell viability assay.

SK-N-AS = experiment: cells; assay type: functional, cell-based; conditions: Homo sapiens;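 further: growth inhibition of human SK-N-AS cells, measured with a cell viability assay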
Description: SANGER: Inhibition of human SK-N-AS cell growth in a cell viability assay.

SN12C = experiment: cells; assay type: functional, cell-based; conditions: Homo sapiens;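 further: growth inhibition of human SN12C cells, measured by a cell viability assay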
Description: SANGER: Inhibition of human SN12C cell growth in a cell viability assay.

SW1990 = experiment: cells; assay type: functional, cell-based; conditions: Homo sapiens
Description: SANGER: Inhibition of human SW1990 cell growth in a cell viability assay.

SW837 = experiment: cells; assay type: functional, cell-based; conditions: Homo sapiens;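 further: growth inhibition of SW837 cells, determined with a cell viability assay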
Description: SANGER: Inhibition of human SW837 cell growth in a cell viability assay.

T84 = experiment: cells; assay type: functional, cell-based; conditions: Homo sapiens;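 further: growth inhibition measured with a cell viability readout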
Description: SANGER: Inhibition of human T84 cell growth in a cell viability assay.

TCC-SUP = experiment: cells; assay type: functional, cell-based; conditions: Homo sapiens;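 further: growth inhibition of TCC-SUP cells, read out with a cell viability assay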
Description: SANGER: Inhibition of human TCCSUP cell growth in a cell viability assay.

5637 = experiment: cells; assay type: functional, cell-based; conditions: Homo sapiens
Description: SANGER: Inhibition of human 5637 cell growth in a cell viability assay.

769-P = experiment: cells; assay type: functional, cell-based; conditions: Homo sapiens
Description: SANGER: Inhibition of human 769-P cell growth in a cell viability assay.

A204 = experiment: cells; assay type: functional, cell-based; conditions: Homo sapiens;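 further: growth inhibition of human A204 cells, read out with a cell viability assay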
Description: SANGER: Inhibition of human A204 cell growth in a cell viability assay.

A2780 = experiment: cells; assay type: functional, cell-based; conditions: Homo sapiens;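 further: growth inhibition of A2780 cells, read out with a cell viability assay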
Description: SANGER: Inhibition of human A2780 cell growth in a cell viability assay.

A-375 = experiment: cells; assay type: functional, cell-based; conditions: Homo sapiens;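 further: growth inhibition of A375 cells, read out with a cell viability assay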
Description: SANGER: Inhibition of human A375 cell growth in a cell viability assay.

ABC-1 = experiment: cells; assay type: functional, cell-based; conditions: Homo sapiens;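 further: growth inhibition of human ABC-1 cells, read out by a cell viability assay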
Description: SANGER: Inhibition of human ABC-1 cell growth in a cell viability assay.

BCPAP = experiment: cells; assay type: functional, cell-based; conditions: Homo sapiens;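 further: growth inhibition of BCPAP cells, read out in a cell viability assay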
Description: SANGER: Inhibition of human BCPAP cell growth in a cell viability assay.

BFTC-905 = experiment: cells; assay type: functional, cell-based; conditions: Homo sapiens
Description: SANGER: Inhibition of human BFTC-905 cell growth in a cell viability assay.

CAL-27 = experiment: cells; assay type: functional, cell-based; conditions: Homo sapiens;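 further: Viability-based readout, IC50 reflecting inhibition of CAL-27 cell growth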
Description: SANGER: Inhibition of human CAL-27 cell growth in a cell viability assay.

UACC-62 = experiment: cells; assay type: functional, cell-based; conditions: Homo sapiens
Description: SANGER: Inhibition of human UACC-62 cell growth in a cell viability assay.

VM-CUB-1 = experiment: cells; assay type: functional, cell-based; conditions: Homo sapiens
Description: SANGER: Inhibition of human VM-CUB-1 cell growth in a cell viability assay.

Structure (SMILES): C=CC(=O)N1CCCC(Nc2nc(Nc3ccc(N(C)C(=O)CC)cc3)nc3[nH]cnc23)C1 (centres undefined)
- IC50 (EB2): > 10200 nM
- IC50 (GDM-1): > 10200 nM
- IC50 (HC-1): > 10200 nM
- IC50 (HCC1599): > 10200 nM
- IC50 (Kasumi 1): > 10200 nM
- IC50 (NALM-6): > 10200 nM
- IC50 (NCI-H1882): > 10200 nM
- IC50 (NCI-H2196): > 10200 nM
- IC50 (NCI-H524): > 10200 nM
- IC50 (PF-382): > 10200 nM
- IC50 (RL95-2): > 10200 nM
- IC50 (SCLC-21H): > 10200 nM
- IC50 (SU-DHL-1): > 10200 nM

Structure (SMILES): COc1ccc(N(C(=O)Oc2c(C)cccc2C)c2ccnc(Nc3ccc(N4CCN(C)CC4)cc3)n2)c(OC)c1
- IC50 (EB2): > 5120 nM
- IC50 (GDM-1): > 5120 nM
- IC50 (HC-1): > 5120 nM
- IC50 (HCC1599): > 5120 nM
- IC50 (Kasumi 1): > 5120 nM
- IC50 (NALM-6): > 5120 nM
- IC50 (NCI-H1882): > 5120 nM
- IC50 (NCI-H2196): > 5120 nM
- IC50 (NCI-H524): > 5120 nM
- IC50 (PF-382): 708 nM
- IC50 (RL95-2): 1320 nM
- IC50 (SCLC-21H): > 5120 nM
- IC50 (SU-DHL-1): > 5120 nM

Structure (SMILES): Cc1cc(N2CCOCC2)cc2[nH]c(-c3c(NC[C@@H](O)c4cccc(Cl)c4)cc[nH]c3=O)nc12
- IC50 (EB2): > 5120 nM
- IC50 (GDM-1): > 5120 nM
- IC50 (HC-1): > 5120 nM
- IC50 (HCC1599): > 5120 nM
- IC50 (Kasumi 1): > 5120 nM
- IC50 (NALM-6): 2970 nM
- IC50 (NCI-H1882): 956 nM
- IC50 (NCI-H2196): > 5120 nM
- IC50 (NCI-H524): > 5120 nM
- IC50 (PF-382): > 5120 nM
- IC50 (RL95-2): 813 nM
- IC50 (SCLC-21H): > 5120 nM
- IC50 (SU-DHL-1): > 5120 nM

Structure (SMILES): NC(=O)c1cccc(-c2cc(Nc3ccc(OC(F)(F)F)cc3)ncn2)c1
- IC50 (EB2): > 1280 nM
- IC50 (GDM-1): > 1280 nM
- IC50 (HC-1): > 1280 nM
- IC50 (HCC1599): > 1280 nM
- IC50 (Kasumi 1): > 1280 nM
- IC50 (NALM-6): > 1280 nM
- IC50 (NCI-H1882): > 1280 nM
- IC50 (NCI-H2196): > 1280 nM
- IC50 (NCI-H524): > 1280 nM
- IC50 (PF-382): > 1280 nM
- IC50 (RL95-2): > 1280 nM
- IC50 (SCLC-21H): > 1280 nM
- IC50 (SU-DHL-1): > 1280 nM

Structure (SMILES): CC(C)C[C@H](NC(=O)[C@H](Cc1ccccc1)NC(=O)c1cnccn1)B(O)O [BORTEZOMIB]
- IC50 (EB2): 18.1 nM
- IC50 (GDM-1): 6.77 nM
- IC50 (HC-1): 0.975 nM
- IC50 (HCC1599): 11.9 nM
- IC50 (Kasumi 1): > 20 nM
- IC50 (NALM-6): 4.49 nM
- IC50 (NCI-H1882): 1.2 nM
- IC50 (NCI-H2196): 6.8 nM
- IC50 (NCI-H524): > 20 nM
- IC50 (PF-382): 1.47 nM
- IC50 (RL95-2): 3.79 nM
- IC50 (SCLC-21H): > 20 nM
- IC50 (SU-DHL-1): 7.24 nM

Structure (SMILES): C[C@@H](Oc1cc(-c2cnn(C3CCNCC3)c2)cnc1N)c1c(Cl)ccc(F)c1Cl [CRIZOTINIB]
- IC50 (EB2): > 2000 nM
- IC50 (GDM-1): > 2000 nM
- IC50 (HC-1): > 2000 nM
- IC50 (HCC1599): > 2000 nM
- IC50 (Kasumi 1): > 2000 nM
- IC50 (NALM-6): > 2000 nM
- IC50 (NCI-H1882): > 2000 nM
- IC50 (NCI-H2196): > 2000 nM
- IC50 (NCI-H524): > 2000 nM
- IC50 (PF-382): > 2000 nM
- IC50 (RL95-2): > 2000 nM
- IC50 (SCLC-21H): > 2000 nM
- IC50 (SU-DHL-1): 337 nM

Structure (SMILES): CC1(C)CCC(c2ccc(Cl)cc2)=C(CN2CCN(c3ccc(C(=O)NS(=O)(=O)c4ccc(N[C@H](CCN5CCOCC5)CSc5ccccc5)c(S(=O)(=O)C(F)(F)F)c4)cc3)CC2)C1 [NAVITOCLAX]
- IC50 (Calu-3): 1710 nM
- IC50 (Capan-2): > 2000 nM
- IC50 (HCC1419): > 2000 nM
- IC50 (HCC1954): > 2000 nM
- IC50 (HCT-116): > 2000 nM
- IC50 (HMV-2 cell line): > 2000 nM
- IC50 (HO-1-N-1): > 2000 nM
- IC50 (HOS): > 2000 nM
- IC50 (J82): > 2000 nM
- IC50 (KOSC-2): > 2000 nM
- IC50 (KYSE-150 cell line): > 2000 nM
- IC50 (KYSE-520 cell line): > 2000 nM
- IC50 (LK-2): > 2000 nM
- IC50 (MHH-ES-1): > 2000 nM
- IC50 (NCI-H1651): > 2000 nM
- IC50 (NCI-H1792): > 2000 nM
- IC50 (NCI-H1793): > 2000 nM
- IC50 (NCI-H2087): > 2000 nM
- IC50 (NCI-H28): > 2000 nM
- IC50 (NCI-H292): > 2000 nM
- IC50 (NCI-H358): > 2000 nM
- IC50 (NCI-H460): > 2000 nM
- IC50 (NCI-H522): > 2000 nM
- IC50 (NCI-H661): > 2000 nM
- IC50 (OE33): > 2000 nM
- IC50 (OVCAR-8): > 2000 nM
- IC50 (RVH-421): > 2000 nM
- IC50 (SAS): > 2000 nM
- IC50 (SCC-9): > 2000 nM
- IC50 (SK-N-AS): > 2000 nM
- IC50 (SN12C): > 2000 nM
- IC50 (SW1990): > 2000 nM
- IC50 (SW837): > 2000 nM
- IC50 (T84): > 2000 nM
- IC50 (TCC-SUP): > 2000 nM
- IC50 5637: > 2000 nM
- IC50 (769-P): > 2000 nM
- IC50 (A204): > 2000 nM
- IC50 (A2780): > 2000 nM
- IC50 (A-375): > 2000 nM
- IC50 (ABC-1): > 2000 nM
- IC50 (BCPAP): > 2000 nM
- IC50 (BFTC-905): > 2000 nM
- IC50 (CAL-27): > 2000 nM
- IC50 (UACC-62): > 2000 nM
- IC50 (VM-CUB-1): > 2000 nM
